Source: ChEMBL document CHEMBL1201862, “PubChem BioAssay data set” (2004)
The source made the active and inactive calls.

How the values were obtained:
[1] = target: T1, Short transient receptor potential channel 4 (Mus musculus, UniProt Q9QUQ5); test: mouse TRPC4 channel inhibitors, dose response, cell-based, HEK293 TRPC4/mu-opioid, Fluo-4 calcium (AID 434942); assay type: functional;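 also: potency of inhibitors blocking the TRPC4 calcium response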
T1 sequence (Q9QUQ5 whole entry): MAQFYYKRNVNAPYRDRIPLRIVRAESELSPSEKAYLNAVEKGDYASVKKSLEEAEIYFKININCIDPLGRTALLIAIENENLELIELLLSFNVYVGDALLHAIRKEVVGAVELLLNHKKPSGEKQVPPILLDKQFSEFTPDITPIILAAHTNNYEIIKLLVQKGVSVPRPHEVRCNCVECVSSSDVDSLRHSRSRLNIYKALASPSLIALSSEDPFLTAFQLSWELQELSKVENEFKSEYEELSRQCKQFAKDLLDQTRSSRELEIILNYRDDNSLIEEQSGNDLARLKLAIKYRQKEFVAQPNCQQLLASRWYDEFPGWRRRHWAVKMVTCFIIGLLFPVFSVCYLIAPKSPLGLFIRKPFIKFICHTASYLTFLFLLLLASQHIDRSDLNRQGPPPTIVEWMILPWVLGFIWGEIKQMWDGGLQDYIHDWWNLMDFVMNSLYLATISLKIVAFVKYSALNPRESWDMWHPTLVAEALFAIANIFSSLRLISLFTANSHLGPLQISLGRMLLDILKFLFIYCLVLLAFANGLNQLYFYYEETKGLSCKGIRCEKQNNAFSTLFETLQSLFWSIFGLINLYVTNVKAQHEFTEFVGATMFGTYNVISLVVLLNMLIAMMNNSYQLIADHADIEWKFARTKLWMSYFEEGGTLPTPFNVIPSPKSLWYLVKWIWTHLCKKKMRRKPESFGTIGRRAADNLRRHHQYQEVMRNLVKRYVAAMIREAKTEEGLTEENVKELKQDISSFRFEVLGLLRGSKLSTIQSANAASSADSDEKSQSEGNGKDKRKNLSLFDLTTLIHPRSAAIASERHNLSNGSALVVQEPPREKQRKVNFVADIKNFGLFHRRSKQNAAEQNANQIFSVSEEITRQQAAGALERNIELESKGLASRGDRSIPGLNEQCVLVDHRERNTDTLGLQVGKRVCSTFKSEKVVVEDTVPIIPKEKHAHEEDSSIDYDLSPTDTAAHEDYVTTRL

[2] = target: FAD-linked sulfhydryl oxidase ALR (Homo sapiens, UniProt P55789); test: inhibitors of human ALR sulfhydryl oxidase, dose response, biochemical, H2O2 detection, luminescence, cherry-pick (AID 493248)
[3] = target: T2, Heat shock factor protein 1 (Mus musculus, UniProt P38532); test: HSF1 potentiators in luciferase reporter cells, confirmation, cell-based, NIH3T3, luminescence, dose retest (AID 435004); assay type: functional;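 also: stress induced by proteasome inhibitor MG132 added 30 min after compound; luciferase reporter driven by HSF1 response element in NIH3T3 cells; actives raise luminescence as potentiators of the MG132 stress response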
T2 sequence (P38532 whole entry): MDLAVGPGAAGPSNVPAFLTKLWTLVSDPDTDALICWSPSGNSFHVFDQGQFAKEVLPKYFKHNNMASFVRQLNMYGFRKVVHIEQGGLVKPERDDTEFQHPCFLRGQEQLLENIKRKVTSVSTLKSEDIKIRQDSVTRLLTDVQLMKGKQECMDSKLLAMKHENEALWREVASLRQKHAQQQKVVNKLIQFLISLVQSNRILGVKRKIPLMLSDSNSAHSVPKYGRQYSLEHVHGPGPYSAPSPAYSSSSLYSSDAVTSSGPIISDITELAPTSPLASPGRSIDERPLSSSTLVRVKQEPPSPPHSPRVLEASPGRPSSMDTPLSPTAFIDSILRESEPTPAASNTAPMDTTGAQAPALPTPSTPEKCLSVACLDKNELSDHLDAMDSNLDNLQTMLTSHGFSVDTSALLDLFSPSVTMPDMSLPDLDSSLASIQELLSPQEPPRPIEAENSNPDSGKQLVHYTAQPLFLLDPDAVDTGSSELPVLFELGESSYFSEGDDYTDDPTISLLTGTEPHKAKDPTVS

cells [4] = assay type: functional, cell-based
cells [5] = assay type: functional, cell-based; remark: listed apart in the source
[6] = target: T3, Rac GTPase-activating protein 1 (Homo sapiens, UniProt Q9H0H5); test: MgcRacGAP GTPase-activating activity inhibitors, confirmation, biochemical, ADP Hunter fluorescence, primary and confirmatory (AID 624330); assay type: functional
T3 sequence (Q9H0H5 whole entry): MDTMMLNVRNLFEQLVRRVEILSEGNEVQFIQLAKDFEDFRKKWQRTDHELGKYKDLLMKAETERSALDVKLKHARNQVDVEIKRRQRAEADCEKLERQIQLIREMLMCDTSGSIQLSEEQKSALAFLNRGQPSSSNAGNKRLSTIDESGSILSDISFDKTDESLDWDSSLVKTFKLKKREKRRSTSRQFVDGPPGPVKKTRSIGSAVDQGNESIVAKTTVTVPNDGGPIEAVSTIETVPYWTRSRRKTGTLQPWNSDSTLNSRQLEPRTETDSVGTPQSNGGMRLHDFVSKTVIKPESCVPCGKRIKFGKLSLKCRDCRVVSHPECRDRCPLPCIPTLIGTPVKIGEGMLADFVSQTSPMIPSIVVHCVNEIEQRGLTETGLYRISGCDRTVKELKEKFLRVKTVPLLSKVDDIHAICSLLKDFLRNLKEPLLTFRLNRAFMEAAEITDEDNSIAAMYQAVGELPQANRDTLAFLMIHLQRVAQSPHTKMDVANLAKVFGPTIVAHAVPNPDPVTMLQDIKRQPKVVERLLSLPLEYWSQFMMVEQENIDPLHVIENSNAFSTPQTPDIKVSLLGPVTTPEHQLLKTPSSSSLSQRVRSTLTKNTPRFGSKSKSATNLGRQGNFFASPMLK

Streptococcus = test: Group A Streptococcus viability loss, dose response, counter-screen for streptokinase expression inhibitor project, luminescence, BacTiterGlo (AID 1915); assay type: functional, organism-based;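 also: potency for reduction of bacterial viability or growth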
[7] = C. albicans growth with fluconazole, confirmation, fluorescence, retest (AID 2467); assay type: functional, cell-based
Vero = test: cells; assay type: functional; details: Chlorocebus sabaeus
[8] = tested on: Streptococcus sp. 'group A'; test: growth inhibition of control SK(-) GAS strain, dose response, counter-screen for streptokinase expression inhibitor project, luminescence, kanamycin, BacTiterGlo, confirmation (AID 1900); assay type: functional, organism-based
[9] = NIH-3T3 fibroblast cytotoxicity, dose response, cytotoxicity control, cell-based, fluorescence, Alamar Blue, secondary assay (AID 2327); assay type: functional;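 also: NIH-3T3 mouse fibroblasts cultured with fluconazole at 8 µg/mL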
Protein skinhead-1 = target: T4, Protein skinhead-1 (Caenorhabditis elegans, UniProt P34707); assay type: functional
T4 sequence (P34707 whole entry): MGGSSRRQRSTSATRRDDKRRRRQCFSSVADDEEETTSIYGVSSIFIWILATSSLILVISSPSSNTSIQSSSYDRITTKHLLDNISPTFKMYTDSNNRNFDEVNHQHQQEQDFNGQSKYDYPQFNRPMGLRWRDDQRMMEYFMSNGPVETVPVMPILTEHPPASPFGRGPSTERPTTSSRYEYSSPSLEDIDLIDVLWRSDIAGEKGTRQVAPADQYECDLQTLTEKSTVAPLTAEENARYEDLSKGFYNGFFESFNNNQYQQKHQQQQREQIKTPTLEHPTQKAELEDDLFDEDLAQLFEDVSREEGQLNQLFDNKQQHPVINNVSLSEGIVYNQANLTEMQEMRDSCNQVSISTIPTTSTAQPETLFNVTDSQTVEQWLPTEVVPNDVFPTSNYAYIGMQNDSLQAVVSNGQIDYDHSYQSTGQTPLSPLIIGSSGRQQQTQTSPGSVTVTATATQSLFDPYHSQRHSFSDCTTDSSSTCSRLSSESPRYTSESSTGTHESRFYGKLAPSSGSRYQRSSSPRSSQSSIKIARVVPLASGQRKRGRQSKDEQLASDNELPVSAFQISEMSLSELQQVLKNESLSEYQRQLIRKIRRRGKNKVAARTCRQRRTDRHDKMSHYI

[10] = Vero E6 cell cytotoxicity, dose response, cytotoxicity control for non-replicating M. tuberculosis project, secondary assay (AID 492998); assay type: functional, VeroE6; details: Vero C1008
cells [11] = assay type: functional
INS1 = test: beta cell apoptosis inhibitors, cytokine rescue, dose response, luminescence, retest (AID 449756); assay type: functional, cell-based; details: Rattus norvegicus;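 also: cell death triggered by IL-1 beta plus TNF-alpha plus IFN-gamma mixture; protective hits raise ATP signal compared with cytokine alone wells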
[12] = Shn3 3'UTR reporter inhibitors, dose response, cell-based, Clone20 osteoblasts, firefly luciferase, cherry-picked (AID 624132); assay type: functional;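 also: firefly luciferase luminescence from reporter carrying the Shn3 3'UTR in osteoblasts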
[13] = control 3'UTR Renilla luciferase suppression, dose response, counter-screen for Shn3 inhibitor project, cell-based, Clone20-Shn3RL, cherry-picked (AID 624133); assay type: functional
Streptokinase A = target: T5, Streptokinase A (Streptococcus pyogenes serotype M1, UniProt P10520); test: S. pyogenes streptokinase expression inhibitors, potency, dose response, plasminogen activation absorbance, OD405 (AID 1914); assay type: functional, Streptococcus pyogenes M1 GAS;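 also: secreted streptokinase activity via plasminogen activation per viability signal from cell pellet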
T5 sequence (P10520 whole entry): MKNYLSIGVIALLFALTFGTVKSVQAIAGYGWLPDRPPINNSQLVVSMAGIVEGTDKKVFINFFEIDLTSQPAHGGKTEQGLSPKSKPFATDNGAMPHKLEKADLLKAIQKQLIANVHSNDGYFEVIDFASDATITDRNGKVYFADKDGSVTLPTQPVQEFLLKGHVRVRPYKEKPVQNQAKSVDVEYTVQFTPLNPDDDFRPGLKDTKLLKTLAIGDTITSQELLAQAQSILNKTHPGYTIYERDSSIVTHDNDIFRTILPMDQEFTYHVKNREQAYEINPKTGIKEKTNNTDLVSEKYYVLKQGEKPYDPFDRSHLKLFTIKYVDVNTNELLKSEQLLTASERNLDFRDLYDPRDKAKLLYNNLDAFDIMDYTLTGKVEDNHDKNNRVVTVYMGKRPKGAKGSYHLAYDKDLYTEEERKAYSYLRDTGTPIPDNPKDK

Cytochrome P450 2D6 = Cytochrome P450 2D6 (Homo sapiens, UniProt P10635);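 also: CYP2D6 member of a cytochrome P450 panel assay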
Cytochrome P450 2C9 = Cytochrome P450 2C9 (Homo sapiens, UniProt P11712)
[14] = Luminescence Cell-Based Dose Retest to Confirm Inhibitors of Cancer Stem Cells. [Related pubchem assays (depositor defined):AID2717, AID2721]; assay type: functional; details: Homo sapiens

Sequence of FAD-linked sulfhydryl oxidase ALR (P55789 whole entry): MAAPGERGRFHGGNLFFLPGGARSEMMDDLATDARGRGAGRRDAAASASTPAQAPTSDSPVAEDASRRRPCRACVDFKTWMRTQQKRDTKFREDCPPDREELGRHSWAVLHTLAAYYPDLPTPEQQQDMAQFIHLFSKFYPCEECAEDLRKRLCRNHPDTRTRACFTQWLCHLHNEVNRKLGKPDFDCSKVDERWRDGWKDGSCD
Sequence of Cytochrome P450 2C9 (P11712 whole entry): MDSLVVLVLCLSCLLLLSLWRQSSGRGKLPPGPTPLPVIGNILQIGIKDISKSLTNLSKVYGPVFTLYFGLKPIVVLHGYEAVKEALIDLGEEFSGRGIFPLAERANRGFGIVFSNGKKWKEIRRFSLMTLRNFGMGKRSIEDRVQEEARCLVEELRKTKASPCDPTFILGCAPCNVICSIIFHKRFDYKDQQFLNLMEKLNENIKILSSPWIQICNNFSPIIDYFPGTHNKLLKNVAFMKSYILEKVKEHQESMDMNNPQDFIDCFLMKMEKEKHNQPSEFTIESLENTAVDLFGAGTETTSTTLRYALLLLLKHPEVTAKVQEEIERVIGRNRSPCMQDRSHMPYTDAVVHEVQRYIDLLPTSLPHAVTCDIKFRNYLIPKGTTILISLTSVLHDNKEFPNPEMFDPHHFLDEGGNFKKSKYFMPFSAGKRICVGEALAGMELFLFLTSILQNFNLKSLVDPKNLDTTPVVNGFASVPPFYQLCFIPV
Sequence of Cytochrome P450 2D6 (P10635 whole entry): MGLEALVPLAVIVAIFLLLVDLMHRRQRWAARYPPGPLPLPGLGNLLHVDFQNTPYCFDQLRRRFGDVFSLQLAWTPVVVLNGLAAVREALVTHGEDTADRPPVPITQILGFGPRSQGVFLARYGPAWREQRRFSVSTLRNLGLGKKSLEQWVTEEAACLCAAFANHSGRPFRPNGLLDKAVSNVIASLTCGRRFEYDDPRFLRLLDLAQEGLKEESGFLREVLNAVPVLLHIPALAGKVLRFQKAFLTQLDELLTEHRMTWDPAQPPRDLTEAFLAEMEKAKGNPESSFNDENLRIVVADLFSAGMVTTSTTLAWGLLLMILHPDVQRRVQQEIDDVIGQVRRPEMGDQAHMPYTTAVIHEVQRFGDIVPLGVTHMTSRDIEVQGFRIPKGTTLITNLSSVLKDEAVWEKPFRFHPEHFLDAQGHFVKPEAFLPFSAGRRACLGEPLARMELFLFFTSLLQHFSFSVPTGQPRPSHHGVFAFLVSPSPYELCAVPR

Cc1cccc(C(=O)Nc2sc(-c3ccccc3)cc2C(=O)O)c1
EC50 [1]: 2.11 µM (active)

Nc1cc(C(F)(F)F)ccc1Nc1ccccc1
AC50 [2]: 14.6 µM (active) | EC50 [1]: 4.22 µM (active)

COC(=O)c1cc(S(=O)(=O)C(C)C)c([S+](C)[O-])s1 (stereo not drawn)
EC50 [3]: 93.8 µM (active)

O=C(Cc1ccc(S(=O)(=O)N2CCOCC2)s1)Nc1ccc(S(=O)(=O)N2CCCCC2)cc1
EC50 (cells [4]): > 350 µM (not active) | EC50 (cells [5]): > 350 µM (not active)

COc1ccc(CN2CCN(Cc3ccccc3F)CC2)c(OC)c1
IC50 [6]: 70.3 µM (active) | EC50 [1]: 4.22 µM (active)

Clc1ccccc1CSc1nc2cc[nH]cc-2n1
EC50 [1]: 2.99 µM (active)

CCC(C)[C@H](Nc1nc(-c2ccccc2)nc2c1oc1ccccc12)C(=O)O (stereo partly drawn)
EC50 [1]: 7.5 µM (active)

CN=C(S)N1CCN(C(c2ccccc2)c2ccccc2)CC1
EC50 [1]: 8.41 µM (active)

C=CC[C@@H]1Cc2c(Br)ccc(Br)c2[C@@H](CC=C)N1
EC50 [3]: > 260 µM (inactive)

CCn1c(NCc2c[nH]c3ccccc23)nc2ccccc21
EC50 [1]: 3.35 µM (active)

COc1ccc(C(=O)NC(=S)NNC(=O)c2ccccc2C)cc1
EC50 (Streptococcus): 2.83 µM (active) | EC50 [7]: 1.69 µM (active) | CC50 (Vero): > 25 µM (active) | EC50 [8]: 1.31 µM (active) | EC50 [9]: > 150 µM (inconclusive)

Cc1ccc(CNC(=O)[C@H](C)N2C(=O)N3CCc4c([nH]c5ccccc45)[C@@]3(C)C2=O)cc1
EC50 [3]: > 260 µM (inactive)

COC(=O)c1ccc2c(=O)n(Cc3ccc(C(=O)NCCCN4CCC(C)CC4)cc3)c(=S)[nH]c2c1
CC50 (Vero): 20.9 µM (active)

COC(=O)[C@H](CCSC)NC(=O)c1cccnc1SC
EC50 (cells [4]): > 350 µM (not active) | EC50 (cells [5]): > 350 µM (not active)

CCOC(=O)COn1c(-c2cccc(Cl)c2)nc2ccc([N+](=O)[O-])cc21
IC50 (Protein skinhead-1): > 100 µM (inactive) | CC50 [10]: > 20 µM (active) | IC50 (cells [11]): 28.9 µM (active)

CCS(=O)(=O)c1ncc(Cl)c(C(=O)Nc2ccccc2OC)n1
AC50 (INS1): 38.9 µM (active) | AC50 [12]: 3.71 µM (active) | EC50 [3]: 8.04 µM (active) | AC50 [13]: 4.81 µM (active)

CCCCCCCCCCCC(=O)c1c(O)cccc1O
EC50 (Streptococcus): 7.15 µM (active) | EC50 [3]: 60.1 µM (active) | EC50 (Streptokinase A): > 150 µM (not active) | EC50 [8]: 1.53 µM (active)

C=CCSc1cc(C)nc2c(-c3ccccc3)cnn12
EC50 (cells [4]): 26.8 µM (active) | EC50 (cells [5]): > 350 µM (not active)

Cc1cn(Cc2ccccc2Cn2cc(C)c(=O)[nH]c2=O)c(=O)[nH]c1=O
EC50 [3]: > 260 µM (inactive)

O=c1c2ccccc2sc2nc(C3CCCCC3)n(Cc3ccco3)c(=O)c12
EC50 [3]: 47.8 µM (active)

COc1ccc(/C=C/C(=O)Oc2cc(O)cc(O)c2)cc1
EC50 [1]: 3.76 µM (active)

CC(=O)/N=c1\sccn1CC(=O)c1ccc([N+](=O)[O-])cc1
AC50 (Cytochrome P450 2D6): 14.1 µM (inconclusive) | EC50 [3]: > 260 µM (inactive) | AC50 (Cytochrome P450 2C9): 0.0794 µM (inconclusive)

COc1cc(N/N=C(\C)c2ccc(O)c(C)c2)nc(-c2ccccc2)n1
CC50 (Vero): > 25 µM (active) | AC50 [14]: 3.99 µM (active)
